Where “and” joins values, the source holds several entries; their conditions need not be identical. Equal values may be shown once. Read-outs that look alike come from different tables or passages of the source.
What was measured:
[1] = Drug cocktail i.v. in CCl4-cirrhotic and control mice: plasma concentrations and AUC; conditions: for Measured plasma concentrations in cirrhotic mice vs PBPK-predicted concentrations: 15-120 min after cocktail, prediction with CYP activity at 11%; for Measured plasma concentrations of parent compound in cirrhotic mice: accompanying increased glucuronides; for Phase I metabolite in blood (formation), cirrhotic vs control, experimental data: i.v. drug cocktail
[2] = Drug cocktail i.v. in mice: 24 h urine, fraction of dose excreted; conditions: for Fraction of dose in urine (24 h), cirrhotic vs control mice: i.v. drug cocktail; for Mean fraction of dose excreted to urine: mice, after drug cocktail administration
[3] = cited from earlier work
[4] = human, cited from earlier work
[5] = Chronic CCl4 treatment (12 months): blood chemistry and bile acids; type: in vivo, mice
Experimental: Male C57 Black 6/N 8–10-week-old mice were used (Janvier Labs, France). The mice were housed under standard environmental conditions with ad libitum feeding on a normal rodent diet (Ssniff, Soest, Germany) and with free access to water. To induce chronic liver damage, the mice were treated repeatedly with carbon tetrachloride (CCl4, 1 G/kg intraperitoneal) twice per week for 12 months ([Ghallab et al., 2019b]; [Holland et al., 2022]). The control mice received the vehicle only (olive oil, application volume 4 mL/kg intraperitoneal). On day 6, after the last CCl4/oil injection, blood as well as liver tissue samples were collected, as previously described ([Ghallab et al., 2016]). All experiments were approved by the local animal protection authorities (application number: 84-02.04.2017. A177).
ALT, AST, and ALP activities as well as albumin concentrations of plasma samples were measured with a 1:1 dilution in PBS using a Piccolo Xpress® chemistry analyzer and General Chemistry 13 panels (Hitado, Möhnesee, Germany).
Plasma concentrations of bile acids were analyzed using negative electrospray (ESI) liquid chromatography-tandem mass spectrometry (LC-MS/MS), as previously described ([Ghallab et al., 2022]).

[6] = mouse, in vivo
[7] = cited from earlier work; remark: listed apart in the source
[8] = humans, cited from earlier work; for Recovered from urine: after a single oral dose, ref Knauf and Mutschler, 1998, FDA
[9] = cited from earlier work; remark: listed apart in the source
[10] = Drug cocktail i.v. in mice: 2 h bile, fraction of dose excreted; conditions: for Mean fraction of dose excreted to bile: mice, 2 h after drug administration
[11] = rat, cited from earlier work
[12] = cited from earlier work; remark: listed apart in the source
[13] = human, cited from earlier work; remark: listed apart in the source
[14] = cited from earlier work; remark: listed apart in the source
[15] = DrugBank, predicted AlogPS, ref Wishart et al., 2017
[16] = DrugBank, predicted ChemAxon, ref Wishart et al., 2017
[17] = experimental, ref Vree and Verwey-van Wissen
[18] = DrugBank, experimental, ref Wishart et al., 2017
[19] = experimental (morphine: logP uncharged), ref Avdeef, 1996
[20] = DrugBank, ref Wishart et al., 2017
[21] = optimized (mouse), ref Schenk et al., 2017
[22] = predicted ACD, ref Nguyen et al., 2016
[23] = predicted, ref Wishart et al., 2017
[24] = optimized, ref Krauss et al., 2017

## COc1ccc2c3c1O[C@H]1[C@@H](O[C@@H]4O[C@H](C(=O)O)[C@@H](O)[C@H](O)[C@H]4O)C=C[C@H]4[C@@H](C2)N(C)CC[C@@]341 [C6G, codeine-6-glucuronide]
[1]
  Measured plasma concentrations in cirrhotic mice vs PBPK-predicted concentrations: much higher
[2]
  Fraction of dose in urine (24 h), cirrhotic vs control mice: higher
  Mean fraction of dose excreted to urine: 1%
[3]; [15]
  Lipophilicity: -0.23
  Solubility: 4310 µg/mL
[3]; [16]
  Lipophilicity: -2.8
[4]; [17]
  Fraction unbound: 0.44

## ClC(Cl)(Cl)Cl [CCl4, carbon tetrachloride]
[5]; CCl4 1 g/kg i.p. twice per week, 12 months, vs oil
  Plasma ALT: increased
[5]; CCl4 12 months vs oil
  ALP: no significant changes
  Albumin: no significant changes
  Plasma AST: increased
  Serum bile acid levels: increased

## Cn1c(=O)c2c(ncn2C)n(C)c1=O [Caffeine, caffeine]
[6]
  Mean fraction of dose excreted to urine: 1%
[7]; C57BL/6N mice, ref Buters et al., 1996
  Share of systemic clearance due to Cyp1a2: 88%
[7]; mice, ref Bonati et al., 1985
  Fraction excreted unchanged to urine: about 5%
[8]; ref Nehlig, 2018
  Fraction excreted unchanged to urine: 0.5-2%
[9]; mouse
  Fraction unbound: 0.70

## COc1ccc2c3c1O[C@H]1[C@@H](O)C=C[C@H]4[C@@H](C2)N(C)CC[C@@]341 [Codeine, codeine]
[1]
  Measured plasma concentrations of parent compound in cirrhotic mice: decreased
[2]
  Mean fraction of dose excreted to urine: 3%
[10]
  Mean fraction of dose excreted to bile: below 1%
[3]; [18]
  Lipophilicity: 1.39
[3]; [19]
  Lipophilicity: 1.19
[4]; [20]
  Fraction unbound: 0.75
[4]; [17]
  Fraction unbound: 0.44

## Cc1ncc2n1-c1ccc(Cl)cc1C(c1ccccc1F)=NC2 [Midazolam, midazolam]
[1]
  Measured plasma concentrations of parent compound in cirrhotic mice: decreased
[2]
  Mean fraction of dose excreted to urine: below 1%
[3]; Ref pH: 6.5, ref Heikkinen et al., 2012
  Solubility: 50 µg/mL
[3]; measurement, ref Poulin and Theil, 2002
  Lipophilicity: 2.95
[3]; midazolam: experimental, ref Poulin and Theil, 2002
  pKa: 5.82
[3]; [21]
  Lipophilicity: 3.33
[3]; optimized, ref Britz et al., 2019
  Lipophilicity: 3.13
[3]; prediction, ref Nguyen et al., 2016
  pKa: 6.04
[3]; prediction, ref Wishart et al., 2017
  Lipophilicity: 3.89
[3]; ref Schenk et al., 2017
  pKa: 6.14
[3]; ref Wishart et al., 2017
  pKa (Base): 6.57
[11]; ref Poulin and Theil, 2002
  Fraction unbound: 0.027
[4]; [20]
  Fraction unbound: 0.03
[12]; measurement, mouse, ref Varkhede et al., 2018
  Fraction unbound: 0.08
[12]; species not given, ref Maurer et al., 2005, Schenk et al., 2017
  Fraction unbound: 0.046

## CN1CC[C@]23c4c5ccc(O)c4O[C@H]2[C@@H](O)C=C[C@H]3[C@H]1C5 [Morphine, morphine]
[2]
  Mean fraction of dose excreted to urine: 1%

## COc1ccc2c3c1O[C@H]1[C@@H](O)C=C[C@H]4[C@@H](C2)NCC[C@@]341 [Norcodeine, norcodeine]
[1]
  Phase I metabolite in blood (formation), cirrhotic vs control, experimental data: reduced formation
[2]
  Mean fraction of dose excreted to urine: 3%
[3]; [15]
  Lipophilicity: 0.99
[3]; [16]
  Lipophilicity: 0.96
[3]; [19]
  Lipophilicity: 0.69
[3]; ref Avdeef, 1996
  pKa (Base): 9.22
[4]; [17]
  Fraction unbound: 0.765

## OCc1ncc2n1-c1ccc(Cl)cc1C(c1ccccc1F)=NC2 [OH-MDZ, 1-hydroxymidazolam]
[2]
  Mean fraction of dose excreted to urine: below 1%
[3]; [15]
  Lipophilicity: 3.09
  Solubility: 25.4 µg/mL
[3]; [16]
  Lipophilicity: 2.48
[3]; [22]
  Lipophilicity: 2.5
  pKa, ampholyte, first value: 3.63
  pKa, ampholyte, second value: 13.6
[3]; [23]
  pKa, ampholyte, first value: 4.99
  pKa, ampholyte, second value: 13.95
[3]; ref Vossen et al., 2007
  Lipophilicity: 2.6
[4]; measured, ref Nguyen et al., 2016
  Fraction unbound: 0.15
[9]; [21]
  Fraction unbound: 0.01

## O=C(O)[C@H]1O[C@@H](OCc2ncc3n2-c2ccc(Cl)cc2C(c2ccccc2F)=NC3)[C@H](O)[C@@H](O)[C@@H]1O [OH-MDZ-G, 1-hydroxymidazolam glucuronide]
[1]
  Measured plasma concentrations in cirrhotic mice vs PBPK-predicted concentrations: much higher
[2]
  Fraction of dose in urine (24 h), cirrhotic vs control mice: higher
[10]
  Mean fraction of dose excreted to bile: 1.2%
[3]; ref Vossen et al., 2007
  Lipophilicity: 1.4

## CC(C)NC(=O)NS(=O)(=O)c1cnccc1Nc1cccc(CO)c1 [OH-torsemide, hydroxy torsemide]
[1]
  Phase I metabolite in blood (formation), cirrhotic vs control, experimental data: decreased formation
[2]
  Mean fraction of dose excreted to urine: 11%
[10]
  Mean fraction of dose excreted to bile: 0.8%
[13]; [24]
  Fraction unbound: 0.00191
[3]; [15]
  Lipophilicity: 0.86
  Solubility: 89.8 µg/mL
[3]; [16]
  Lipophilicity: 0.49
[3]; [21]
  Lipophilicity: 0.75
[3]; optimized, human, ref Krauss et al., 2017
  Lipophilicity: 2.139
[8]; 2017
  Recovered from urine: about 10%

## Cn1c(=O)[nH]c2ncn(C)c2c1=O [Paraxanthine, 1,7-Dimethylxanthine]
[6]
  Mean fraction of dose excreted to urine: 2%
[3]; DrugBank, AlogPS prediction, ref Wishart et al., 2017
  Solubility: 9130 µg/mL
[3]; [15]
  Lipophilicity: -0.63
[3]; [16]
  Lipophilicity: 0.27
[3]; ref FooDB
  pKa: Neutral
[11]; measured, ref Bortolotti et al., 1985
  Fraction unbound: 0.85
[4]; measured, ref Lelo et al., 1986
  Fraction unbound: 0.56

## CC(C)(C)NCC(O)COc1ccc(NC(=O)NC2CCCCC2)cc1 (stereo not drawn) [Talinolol, talinolol]
[2]
  Mean fraction of dose excreted to urine: 4% and < 5%
[10]; 2 h bile
  Amount in bile, cirrhotic vs control mice: significantly increased
[10]
  Mean fraction of dose excreted to bile: 0.5% and < 1%
[13]; possibly optimized, ref Tubic et al., 2006
  Fraction unbound: 0.45
[3]; [15]
  Lipophilicity: 2.91
[3]; [16]
  Lipophilicity: 2.8
[3]; at pH=7.5, ref Gramatté et al., 1996
  octanol-water partition coefficient: 12
[3]; [21]
  Lipophilicity: 2.3
[3]; ref Gramatté et al., 1996
  Lipophilicity: 1.08
  Solubility: 3.4 mM
[3]; ref Matthaei et al., 2016
  pKa (Base): 9.3
[3]; rounded values, ref DrugBank
  logP from the DrugBank database as quoted in text: 2.9
[8]; after IV administration, ref Terhaag et al., 1989
  Median fraction of dose found in bile: 9.3%
[8]; ref Trausch et al., 1995
  Dose recovered unchanged from urine: about 60%
[4]; measured, ref Obach et al., 2008
  Fraction unbound: 0.39
[9]; mouse, optimized (talinolol: possibly optimized), ref Thiel et al., 2015
  Fraction unbound: 0.65

## Cc1cccc(Nc2ccncc2S(=O)(=O)NC(=O)NC(C)C)c1 [Torsemide, torsemide]
[6]
  Mean fraction of dose excreted to urine: 4%
[6]; iv
  Fraction of dose in urine (24 h), cirrhotic vs control mice: increased significantly
[14]; rat, after 8h cannulation, ref Lee et al., 2005
  Dose found in bile: about 2%
[14]; ref Lee 2005
  Tissue-to-plasma ratio, liver: 0.336
  Tissue-to-plasma ratio, muscle: 0.069
[13]; [24]
  Fraction unbound: 0.00125
[3]; [18]
  Lipophilicity: 3.356
[3]; [15]
  Lipophilicity: 1.76
  Solubility: 55.96 µg/mL
[3]; [16]
  Lipophilicity: 1.86
[3]; mouse, optimized, ref Thiel et al., 2015
  Lipophilicity: 2.023
[3]; [21]
  Lipophilicity: 2.3
[3]; ref FDA, 2017, Wishart et al.
  pKa: 7.1
[3]; ref Knauf and Mutschler, 1998
  Lipophilicity: 0.57
  pKa: 7
[11]; experimental, ref Lee et al., 2005
  Fraction unbound: 0.061
[11]; experimental, ref Lee et al., 2005, listed as torsemide
  Fraction unbound: 0.06
[8]; 2017
  Recovered from urine: about 20%
[8]; ref FDA, 2017
  Share excreted to urine: about 20%
  Share of drug clearance by hepatic metabolism: about 80%
[4]; experimental, ref Knauf and Mutschler, 1998, Wishart et al., 2017
  Fraction unbound: < 0.01

Source: article PMC10694292, “Increased sinusoidal export of drug glucuronides is a compensative mechanism in liver cirrhosis of mice” (Frontiers in Pharmacology, 2023)
